{"source": "ChEMBL document CHEMBL4619771", "about": "“Terpenoids from the Liverwort Plagiochila fruticosa and Their Antivirulence Activity against Candida albicans” (2020)", "key": {"[1]": {"tested_on": "Candida albicans", "assay": "Antifungal activity against wild-type Candida albicans SC5314 assessed as reduction in filamentous growth", "type": "functional, organism-based"}, "[2]": {"tested_on": "Candida albicans", "assay": "Downregulation of UME6 gene expression in Candida albicans DSY654 at 4 ug/ml after 1.5 to 6 hrs by RT-qPCR assay", "type": "functional, organism-based"}, "[3]": {"tested_on": "Candida albicans", "assay": "Antifungal activity against Candida albicans DSY654 assessed as inhibition of biofilm formation incubated for 24 hrs by XTT assay", "type": "functional, organism-based"}, "[4]": {"tested_on": "Candida albicans", "assay": "Antifungal activity against Candida albicans DSY654 assessed as reduction in filamentous growth", "type": "functional, organism-based"}, "[5]": {"tested_on": "Candida albicans", "assay": "Downregulation of RAS1 gene expression in Candida albicans DSY654 at 4 ug/ml after 1.5 to 6 hrs by RT-qPCR assay", "type": "functional, organism-based"}, "[6]": {"tested_on": "Candida albicans", "assay": "Downregulation of HWP1 gene expression in Candida albicans DSY654 at 4 ug/ml after 1.5 to 6 hrs by RT-qPCR assay", "type": "functional, organism-based"}, "[7]": {"tested_on": "Candida albicans", "assay": "Downregulation of ECE1 gene expression in Candida albicans DSY654 at 4 ug/ml after 1.5 to 6 hrs by RT-qPCR assay", "type": "functional, organism-based"}, "[8]": {"tested_on": "Candida albicans", "assay": "Upregulation of PDE2 gene expression in Candida albicans DSY654 at 4 ug/ml after 1.5 to 6 hrs by RT-qPCR assay", "type": "functional, organism-based"}, "[9]": {"tested_on": "Candida albicans", "assay": "Antifungal activity against Candida albicans DSY654 assessed as inhibition of yeast to hyphal morphological transition measured at 6 hrs by fluorescent microscopy", "type": "functional, organism-based"}, "[10]": {"tested_on": "Candida albicans", "assay": "Downregulation of ALS3 gene expression in Candida albicans DSY654 at 4 ug/ml after 1.5 to 6 hrs by RT-qPCR assay", "type": "functional, organism-based"}, "[11]": {"tested_on": "Candida albicans", "assay": "Antifungal activity against Candida albicans DSY654 assessed as inhibition of massive filamentation at 4 to 32 ug/ml", "type": "functional, organism-based"}, "[12]": {"tested_on": "Candida albicans", "assay": "Antifungal activity against Candida albicans DSY654 assessed as inhibition of biofilm formation incubated for 24 hrs by fluorescent microscopy", "type": "functional, organism-based"}, "[13]": {"tested_on": "Candida albicans", "assay": "Upregulation of NRG1 gene expression in Candida albicans DSY654 at 4 ug/ml after 1.5 to 6 hrs by RT-qPCR assay relative to control", "type": "functional"}, "[14]": {"tested_on": "Candida albicans", "assay": "Antifungal activity against Candida albicans DSY654 assessed as reduction in number of adherent fungal cells on human A549 cells after 90 mins by calcofluor White staining based fluorescent microscopy", "type": "functional, organism-based"}, "[15]": {"tested_on": "Candida albicans", "assay": "Downregulation of CDC35 gene expression in Candida albicans DSY654 at 4 ug/ml after 1.5 to 6 hrs by RT-qPCR assay", "type": "functional, organism-based"}}, "note": "The source made the active and inactive calls. No cut-off for these calls is given here."}
{"smiles": "CC(=O)O[C@@H]1/C=C(\\CO)[C@H](OC(=O)CCc2ccccc2)C[C@H]2[C@@H](/C=C(\\C)[C@@H]1O)[C@@]2(C)CO", "values": [{"measurement": "Activity", "setting": "[1]", "value": "inactive"}]}
{"smiles": "CC1=C2C[C@@]3(C)CC(=O)[C@](O)(C(C)C)[C@@H]3CC[C@H](C)[C@@]2(O)CC1=O", "values": [{"measurement": "Activity", "setting": "[1]", "value": "inactive"}]}
{"smiles": "CC(C)[C@@]1(O)C(=O)C[C@]2(C)CC3=C(C(=O)C[C@@]3(C)O)[C@@H](C)CC[C@H]21", "values": [{"measurement": "Activity", "setting": "[1]", "value": "inactive"}]}
{"smiles": "CC1=C2C[C@]3(C)CC(=O)[C@@](O)(C(C)C)[C@H]3CC[C@H](C)[C@]2(O)CC1=O", "values": [{"measurement": "Activity", "setting": "[1]", "value": "inactive"}]}
{"smiles": "C=C1CC[C@@H](O)[C@]2(C)CC[C@H]3[C@@H]([C@@H]12)[C@@H](C(C)(C)O)CC[C@@H]3C", "values": [{"measurement": "Activity", "setting": "[1]", "value": "inactive"}]}
{"smiles": "C=C1CC[C@H]2[C@@H](/C=C(\\C)[C@H](OC(C)=O)[C@H](OC(C)=O)[C@@H]1OC(C)=O)C2(C)C", "values": [{"measurement": "Activity", "setting": "[2]", "value": "Active"}, {"measurement": "Activity", "setting": "[3]", "value": "Dose-dependent effect"}, {"measurement": "Activity", "setting": "[4]", "value": "Active"}, {"measurement": "Activity", "setting": "[5]", "value": "Active"}, {"measurement": "Activity", "setting": "[6]", "value": "Active"}, {"measurement": "Activity", "setting": "[7]", "value": "Active"}, {"measurement": "Activity", "setting": "[8]", "value": "Active"}, {"measurement": "Activity", "setting": "[9]", "value": "Dose-dependent effect"}, {"measurement": "Activity", "setting": "[10]", "value": "Active"}, {"measurement": "Activity", "setting": "[11]", "value": "Active"}, {"measurement": "Activity", "setting": "[1]", "value": "inactive"}, {"measurement": "Activity", "setting": "[12]", "value": "Dose-dependent effect"}, {"measurement": "fold change (FC)", "setting": "[13]", "value": ">10"}, {"measurement": "Activity", "setting": "[14]", "value": "Dose-dependent effect"}, {"measurement": "Activity", "setting": "[15]", "value": "Active"}]}
{"smiles": "C=C1[C@@H](O)[C@@H]2[C@H](C[C@@H](OC(=O)CCc3ccccc3)/C(CO)=C/[C@@H](OC(C)=O)[C@H]1O)[C@]2(C)CO", "values": [{"measurement": "Activity", "setting": "[1]", "value": "inactive"}]}
{"smiles": "CC(=O)O[C@H]1/C(C)=C/[C@@H]2[C@H](C[C@@H](OC(=O)CCc3ccccc3)/C(CO)=C/[C@H]1O)[C@]2(C)CO", "values": [{"measurement": "Activity", "setting": "[1]", "value": "inactive"}]}
{"smiles": "CC(=O)OC/C1=C\\[C@@H](O)[C@@H](OC(C)=O)/C(C)=C/[C@@H]2[C@H](C[C@H]1OC(=O)CCc1ccccc1)[C@]2(C)CO", "values": [{"measurement": "Activity", "setting": "[1]", "value": "inactive"}]}
{"smiles": "C=C1CC[C@H]2[C@@H](/C=C(\\C)CC[C@H]1O)[C@@H](C(C)(C)O)CC[C@@H]2C", "values": [{"measurement": "Activity", "setting": "[4]", "value": "Active"}, {"measurement": "Activity", "setting": "[1]", "value": "inactive"}]}
{"smiles": "CC(C)[C@@]1(O)C(=O)C[C@]2(C)C[C@]3(O)C(=CC(=O)[C@H]3C)[C@@H](C)CC[C@H]21", "values": [{"measurement": "Activity", "setting": "[1]", "value": "inactive"}]}
{"smiles": "C=C1[C@@H](O)[C@@H]2[C@H](C[C@@H](O)/C(COC(=O)CCc3ccccc3)=C/[C@@H](O)[C@H]1OC(C)=O)[C@]2(C)CO", "values": [{"measurement": "Activity", "setting": "[1]", "value": "inactive"}]}
{"smiles": "CC(C)[C@]1(O)C(=O)C[C@@]2(C)CC3=C([C@H](C)CC[C@@H]21)[C@H](O)CC3=O", "values": [{"measurement": "Activity", "setting": "[1]", "value": "inactive"}]}
{"smiles": "CC(=O)O[C@H]1OC=C(CO)[C@H]2[C@@H]1[C@@]1(CC[C@H]3[C@@H]2[C@@]3(CO)COC(=O)/C=C/c2ccccc2)CO1", "values": [{"measurement": "Activity", "setting": "[1]", "value": "inactive"}]}
